According to patent US10961309B2, “Reducing systemic regulatory T cell levels or activity for treatment of disease and injury of the CNS” (Yeda Research and Development Co. Ltd, priority 2014, dated 2021):
“Also recorded” adds a separate entry of the source.

Experiments:
5XFAD AD-Tg mice [1] = assay: Radial arm water maze (RAWM); type: in vivo, mouse
Method: The radial-arm water maze (RAWM) was used to test spatial learning and memory, as was previously described in detail (Alamed et al, 2006). Briefly, six stainless steel inserts were placed in the tank, forming six swim arms radiating from an open central area. The escape platform was located at the end of one arm (the goal arm), 1.5 cm below the water surface, in a pool 1.1 m in diameter. The water temperature was kept between 21-22° C. Water was made opaque with milk powder. Within the testing room, only distal visual shape and object cues were available to the mice to aid in location of the submerged platform. The goal arm location remained constant for a given mouse. On day 1, mice were trained for 15 trials (spaced over 3 h), with trials alternating between a visible and hidden platform, and the last 4 trails with hidden platform only. On day 2, mice were trained for 15 trials with the hidden platform. Entry into an incorrect arm, or failure to select an arm within 15 sec, was scored as an error. Spatial learning and memory were measured by counting the number of arm entry errors or the escape latency of the mice on each trial. Training data were analyzed as the mean errors or escape latency, for training blocks of three consecutive trials.
At 10 months of age, 5XFAD Alzheimer's' disease (AD) transgenic (Tg) mice were injected i.p. with either 250 ug of anti-PD1 (RMP1-14; #BE0146; Bioxcell Lifesciences Pvt. LTD.) or control IgG (IgG2a; #BE0089; Bioxcell Lifesciences Pvt. LTD.) antibodies, on day 1 and day 4 of the experiment, and were examined 3 weeks after (schematically depicted in FIG. 11A) for their cognitive performance by radial arm water maze (RAWM) spatial learning and memory task, as was previously described in detail (Alamed et al, 2006). Briefly, on day 1 of the RAWM task, mice were trained for 15 trials (spaced over 3 h), with trials alternating between a visible and hidden platform, and the last 4 trails with hidden platform only. On day 2, mice were trained for 15 trials with the hidden platform. Entry into an incorrect arm, or failure to select an arm within 15 sec, was scored as an error. Spatial learning and memory were measured by counting the number of arm entry errors or the escape latency of the mice on each trial. Age matched untreated WT and AD-Tg mice were used as controls.

5XFAD AD-Tg mice [2] = assay: Morris water maze (MWM); type: in vivo, mouse
Method: Mice were given three trials per day, for 4 consecutive days, to learn to find a hidden platform located 1.5 cm below the water surface in a pool (1.1 m in diameter). The water temperature was kept between 21-22° C. Water was made opaque with milk powder. Within the testing room, only distal visual shape and object cues were available to the mice to aid in location of the submerged platform. The escape latency, i.e., the time required to find and climb onto the platform, was recorded for up to 60 s. Each mouse was allowed to remain on the platform for 15 s and was then removed from the maze to its home cage. […] The inter-trial interval for each mouse was 10 min. On day 5, the platform was removed, and mice were given a single trial lasting 60 s without available escape. On days 6 and 7, the platform was placed in the quadrant opposite the original training quadrant, and the mouse was retrained for three sessions each day. Data were recorded using the EthoVision V7.1 automated tracking system (Noldus Information Technology). Statistical analysis was performed using analysis of variance (ANOVA) and the Bonferroni post-hoc test. All MWM testing was performed between 10 a.m. and 5 p.m. during the lights-off phase.

CC1=C(/C=C/C(C)=C/C=C/C(C)=C/C(=O)O)C(C)(C)CCC1 [ATRA, All-trans retinoic acid]
cognitive performance (spatial memory) in the RAWM (5XFAD AD-Tg mice [1]; ATRA-treated vs vehicle-treated AD-Tg mice, 3 weeks after treatment): worsening of the spatial memory deficits

Diphtheria toxin [DTx]
spatial learning and memory (MWM) (5XFAD AD-Tg mice [2]; AD-Tg/DTR+ vs DTx-treated AD-Tg/DTR− mice, 3 weeks after last DTx injection): better spatial learning/memory performance; also recorded: significant improvement in spatial learning and memory

Glatiramer acetate [GA]
spatial learning/memory performance in acquisition, probe and reversal phases of the MWM (5XFAD AD-Tg mice [2]; weekly-GA vs vehicle (PBS), AD-Tg mice, age 6 m): better spatial learning/memory performance | cognitive performance (5XFAD AD-Tg mice [2]; weekly-GA, 5XFAD AD-Tg mice, MWM 1 week, RAWM 1 and 2 months after last injection): improved cognitive performance | cognitive performance (spatial memory) by the RAWM task (5XFAD AD-Tg mice [1]; daily-GA 100 μg s.c. for 1 month, 7-month old 5XFAD AD-Tg mice): either no beneficial effect on spatial memory, or a tendency towards a worsening effect | duration of improved cognitive performance after the treatment (5XFAD AD-Tg mice [1]; weekly-GA, 5XFAD AD-Tg mice): up to 2 months | cognitive performance by the RAWM task (5XFAD AD-Tg mice [1]; weekly-GA, 7-month old 5XFAD AD-Tg mice): beneficial effect
